From patent publication US6933304B2, “Heteroarylalkanoic acids as integrin receptor antagonists” (Pharmacia Corporation, priority 2000, dated 2005) come the findings set out here.

One may read the IC50 as the concentration at which inhibition is half-maximal.

The target of the test is T1, Human vitronectin receptor αVβ3 (Homo sapiens, UniProt P05106+P06756).
T1 construct: Human vitronectin receptors αVβ3 and αVβ5 were purified from human placenta; from tissue; host or cells: human placenta
As to the kind of experiment: Vitronectin adhesion assay (solid phase receptor assay). The note with it: positive control included on each plate; read-out: IC50 αVβ3 antagonist (positive control). Type of test: binding. On the procedure:
Human vitronectin receptors αVβ3 and αVβ5 were purified from human placenta as previously described [Pytela et al., Methods in Enzymology, 144:475-489 (1987)]. Human vitronectin was purified from fresh frozen plasma as previously described [Yatohgo et al., Cell Structure and Function, 13:281-292 (1988)]. Biotinylated human vitronectin was prepared by coupling NHS-biotin from Pierce Chemical Company (Rockford, Ill.) to purified vitronectin as previously described [Charo et al., J. Biol. Chem., 266(3):1415-1421 (1991)]. Assay buffer, OPD substrate tablets, and RIA grade BSA were obtained from Sigma (St. Louis, Mo.). Anti-biotin antibody was obtained from Sigma (St. Louis, Mo.). Nalge Nunc-Immuno microtiter plates were obtained from Nalge Company (Rochester, N.Y.).
This assay was essentially the same as previously reported [Niiya et al., Blood, 70:475-483 (1987)]. […] The plate was read with a microtiter plate reader at a wavelength of 450 nm and when the maximum-binding control wells reached an absorbance of about 1.0, the final A450 were recorded for analysis. The data were analyzed using a macro written for use with the EXCEL spreadsheet program. The mean, standard deviation, and % CV were determined for duplicate concentrations. […]

T1 sequence (P06756 31-889 limits assumed): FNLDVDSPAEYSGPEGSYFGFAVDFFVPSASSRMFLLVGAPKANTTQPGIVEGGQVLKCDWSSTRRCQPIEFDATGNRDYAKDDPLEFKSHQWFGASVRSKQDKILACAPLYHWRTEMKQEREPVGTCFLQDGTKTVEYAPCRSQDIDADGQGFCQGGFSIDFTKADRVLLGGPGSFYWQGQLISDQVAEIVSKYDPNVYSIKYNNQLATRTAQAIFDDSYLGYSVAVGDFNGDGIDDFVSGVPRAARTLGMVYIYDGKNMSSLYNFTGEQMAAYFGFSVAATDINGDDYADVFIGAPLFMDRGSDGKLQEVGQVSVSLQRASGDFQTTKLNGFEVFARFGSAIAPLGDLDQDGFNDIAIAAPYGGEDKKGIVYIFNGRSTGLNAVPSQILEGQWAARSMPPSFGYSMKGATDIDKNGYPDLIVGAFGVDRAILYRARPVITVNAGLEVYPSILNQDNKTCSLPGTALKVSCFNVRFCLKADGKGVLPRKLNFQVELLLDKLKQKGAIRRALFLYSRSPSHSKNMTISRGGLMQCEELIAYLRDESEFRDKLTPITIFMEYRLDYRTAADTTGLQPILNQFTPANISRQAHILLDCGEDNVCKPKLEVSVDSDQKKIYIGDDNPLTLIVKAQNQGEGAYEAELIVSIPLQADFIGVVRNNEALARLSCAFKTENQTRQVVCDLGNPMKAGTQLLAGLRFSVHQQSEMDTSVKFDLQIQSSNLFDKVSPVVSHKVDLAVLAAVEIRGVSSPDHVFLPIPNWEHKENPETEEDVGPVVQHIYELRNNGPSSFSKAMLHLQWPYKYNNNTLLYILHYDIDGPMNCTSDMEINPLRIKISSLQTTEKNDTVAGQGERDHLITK
T1 sequence (P06756 891-1048 partner limits assumed): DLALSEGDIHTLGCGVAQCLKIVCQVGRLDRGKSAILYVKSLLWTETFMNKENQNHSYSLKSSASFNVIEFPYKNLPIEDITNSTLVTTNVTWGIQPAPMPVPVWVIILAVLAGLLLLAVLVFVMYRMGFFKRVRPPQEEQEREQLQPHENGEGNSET
T1 sequence (P05106 27-788): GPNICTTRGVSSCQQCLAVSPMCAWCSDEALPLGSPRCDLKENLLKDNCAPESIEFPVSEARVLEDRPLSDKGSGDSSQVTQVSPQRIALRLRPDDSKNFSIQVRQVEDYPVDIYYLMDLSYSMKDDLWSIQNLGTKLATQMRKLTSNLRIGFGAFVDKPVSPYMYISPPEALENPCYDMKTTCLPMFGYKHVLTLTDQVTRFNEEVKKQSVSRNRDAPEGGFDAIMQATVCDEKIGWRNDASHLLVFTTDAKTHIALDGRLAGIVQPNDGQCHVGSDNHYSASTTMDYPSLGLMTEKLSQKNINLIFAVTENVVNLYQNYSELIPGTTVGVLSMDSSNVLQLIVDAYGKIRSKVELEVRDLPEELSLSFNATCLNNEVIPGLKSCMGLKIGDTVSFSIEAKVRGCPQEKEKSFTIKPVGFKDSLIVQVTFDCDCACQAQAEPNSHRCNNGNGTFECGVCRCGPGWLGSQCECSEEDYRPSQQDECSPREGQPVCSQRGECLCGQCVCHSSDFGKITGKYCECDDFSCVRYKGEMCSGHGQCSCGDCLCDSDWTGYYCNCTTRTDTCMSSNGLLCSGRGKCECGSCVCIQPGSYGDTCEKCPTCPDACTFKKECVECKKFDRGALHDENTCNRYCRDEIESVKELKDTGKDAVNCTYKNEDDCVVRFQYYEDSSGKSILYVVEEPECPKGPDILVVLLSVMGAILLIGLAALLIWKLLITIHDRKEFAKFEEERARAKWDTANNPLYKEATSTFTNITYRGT

For “β-[[2-[[5-[(aminoiminomethyl)amino]-1-oxopentyl]amino]-1-oxoethyl]amino]-3-pyridinepropanoic acid”, the IC50 was 3 to 10 nM.
